Measured values reported in ChEMBL document CHEMBL1201862, “PubChem BioAssay data set” (2004).
Where “and” joins values, the source holds several entries; their conditions need not be identical. Equal values may be shown once. Calls of active or inactive are those of the source.

Columns and labels:
[1] = biological target: Peroxisome proliferator-activated receptor gamma/Nuclear receptor coactivator 1 (Homo sapiens, UniProt P37231); assay: TR-FRET dose response biochemical High Throughput Screening assay for agonists of the steroid receptor coactivator 1 (SRC-1) recruitment by the peroxisome proliferator-activated receptor gamma (PPAR gamma): non-selective agonists. [Related pubchem assays (depositor defined):AID1300, AID1808, AID504735, AID631]; format: protein assay
[2] = biological target: Peroxisome proliferator-activated receptor gamma/Nuclear receptor coactivator 3 (Homo sapiens, UniProt P37231); assay: TR-FRET dose response biochemical High Throughput Screening assay for agonists of the steroid receptor coactivator 3 (SRC-3) recruitment by the peroxisome proliferator-activated receptor gamma (PPAR gamma): non-selective agonists. [Related pubchem assays: 1301 (Confirmation screen.), 1048 (Primary screen.)]; format: functional
Chain of Peroxisome proliferator-activated receptor gamma/Nuclear receptor coactivator 3 (P37231 whole entry): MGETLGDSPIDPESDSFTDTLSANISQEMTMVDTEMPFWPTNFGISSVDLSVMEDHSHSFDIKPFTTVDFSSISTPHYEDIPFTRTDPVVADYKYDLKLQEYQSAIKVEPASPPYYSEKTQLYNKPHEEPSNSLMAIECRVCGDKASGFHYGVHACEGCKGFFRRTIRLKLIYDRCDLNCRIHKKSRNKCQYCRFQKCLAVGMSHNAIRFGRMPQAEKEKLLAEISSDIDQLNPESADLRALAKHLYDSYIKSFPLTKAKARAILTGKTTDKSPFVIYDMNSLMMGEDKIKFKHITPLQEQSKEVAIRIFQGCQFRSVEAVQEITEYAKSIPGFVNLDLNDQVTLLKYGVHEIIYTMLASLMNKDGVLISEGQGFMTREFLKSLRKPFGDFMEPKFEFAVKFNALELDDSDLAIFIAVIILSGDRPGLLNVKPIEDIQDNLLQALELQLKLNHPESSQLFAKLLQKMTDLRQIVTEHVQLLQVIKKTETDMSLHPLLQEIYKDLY
Chain of Peroxisome proliferator-activated receptor gamma/Nuclear receptor coactivator 3 (Q9Y6Q9 whole entry, further chain): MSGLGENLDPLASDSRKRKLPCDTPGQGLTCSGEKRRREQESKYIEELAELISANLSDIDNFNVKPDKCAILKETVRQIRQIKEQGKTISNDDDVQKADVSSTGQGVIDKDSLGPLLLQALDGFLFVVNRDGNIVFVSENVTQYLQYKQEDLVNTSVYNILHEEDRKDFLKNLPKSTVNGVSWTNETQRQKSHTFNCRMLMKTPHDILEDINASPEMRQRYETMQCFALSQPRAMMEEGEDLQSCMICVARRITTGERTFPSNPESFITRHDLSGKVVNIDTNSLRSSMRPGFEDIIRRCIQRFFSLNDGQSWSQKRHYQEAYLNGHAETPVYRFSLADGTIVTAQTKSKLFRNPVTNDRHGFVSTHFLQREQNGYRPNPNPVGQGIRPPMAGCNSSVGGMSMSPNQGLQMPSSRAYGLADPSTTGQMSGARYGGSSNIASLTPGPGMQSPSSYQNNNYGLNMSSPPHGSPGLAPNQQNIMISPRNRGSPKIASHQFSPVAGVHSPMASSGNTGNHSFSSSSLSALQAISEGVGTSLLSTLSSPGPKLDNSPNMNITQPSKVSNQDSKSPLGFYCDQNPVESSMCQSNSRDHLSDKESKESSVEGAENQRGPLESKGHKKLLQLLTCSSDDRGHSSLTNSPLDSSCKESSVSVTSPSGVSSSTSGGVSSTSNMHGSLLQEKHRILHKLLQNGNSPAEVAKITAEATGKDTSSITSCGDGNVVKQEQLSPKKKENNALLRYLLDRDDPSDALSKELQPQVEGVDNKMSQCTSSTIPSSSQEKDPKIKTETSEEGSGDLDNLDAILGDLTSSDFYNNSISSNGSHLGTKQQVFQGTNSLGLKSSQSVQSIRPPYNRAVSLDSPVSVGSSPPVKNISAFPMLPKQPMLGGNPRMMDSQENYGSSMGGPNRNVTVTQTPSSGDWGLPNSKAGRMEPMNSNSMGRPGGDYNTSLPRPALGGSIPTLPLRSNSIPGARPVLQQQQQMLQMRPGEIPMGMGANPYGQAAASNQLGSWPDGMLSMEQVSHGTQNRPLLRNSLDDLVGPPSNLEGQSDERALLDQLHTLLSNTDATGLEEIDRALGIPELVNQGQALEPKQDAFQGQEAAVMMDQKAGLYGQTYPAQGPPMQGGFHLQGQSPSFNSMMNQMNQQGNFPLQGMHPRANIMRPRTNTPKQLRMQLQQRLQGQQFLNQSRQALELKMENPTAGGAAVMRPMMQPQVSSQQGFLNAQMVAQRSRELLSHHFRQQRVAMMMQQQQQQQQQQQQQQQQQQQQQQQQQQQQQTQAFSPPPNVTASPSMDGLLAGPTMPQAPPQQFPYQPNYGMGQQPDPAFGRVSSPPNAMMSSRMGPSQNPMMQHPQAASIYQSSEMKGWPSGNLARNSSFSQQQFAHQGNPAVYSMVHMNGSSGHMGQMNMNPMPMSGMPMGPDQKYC

[3] = biological target: Peroxisome proliferator-activated receptor gamma/Nuclear receptor coactivator 2 (Homo sapiens, UniProt P37231); assay: TR-FRET dose response biochemical High Throughput Screening assay for agonists of the steroid receptor coactivator 2 (SRC-2) recruitment by the peroxisome proliferator-activated receptor gamma (PPAR gamma): non-selective agonists. [Related pubchem assays: 1297, 1032 ]; format: functional
Chain of Peroxisome proliferator-activated receptor gamma/Nuclear receptor coactivator 2 (P37231 whole entry): as the sequence (P37231 whole entry) above
Chain of Peroxisome proliferator-activated receptor gamma/Nuclear receptor coactivator 2 (Q15596 whole entry, further chain): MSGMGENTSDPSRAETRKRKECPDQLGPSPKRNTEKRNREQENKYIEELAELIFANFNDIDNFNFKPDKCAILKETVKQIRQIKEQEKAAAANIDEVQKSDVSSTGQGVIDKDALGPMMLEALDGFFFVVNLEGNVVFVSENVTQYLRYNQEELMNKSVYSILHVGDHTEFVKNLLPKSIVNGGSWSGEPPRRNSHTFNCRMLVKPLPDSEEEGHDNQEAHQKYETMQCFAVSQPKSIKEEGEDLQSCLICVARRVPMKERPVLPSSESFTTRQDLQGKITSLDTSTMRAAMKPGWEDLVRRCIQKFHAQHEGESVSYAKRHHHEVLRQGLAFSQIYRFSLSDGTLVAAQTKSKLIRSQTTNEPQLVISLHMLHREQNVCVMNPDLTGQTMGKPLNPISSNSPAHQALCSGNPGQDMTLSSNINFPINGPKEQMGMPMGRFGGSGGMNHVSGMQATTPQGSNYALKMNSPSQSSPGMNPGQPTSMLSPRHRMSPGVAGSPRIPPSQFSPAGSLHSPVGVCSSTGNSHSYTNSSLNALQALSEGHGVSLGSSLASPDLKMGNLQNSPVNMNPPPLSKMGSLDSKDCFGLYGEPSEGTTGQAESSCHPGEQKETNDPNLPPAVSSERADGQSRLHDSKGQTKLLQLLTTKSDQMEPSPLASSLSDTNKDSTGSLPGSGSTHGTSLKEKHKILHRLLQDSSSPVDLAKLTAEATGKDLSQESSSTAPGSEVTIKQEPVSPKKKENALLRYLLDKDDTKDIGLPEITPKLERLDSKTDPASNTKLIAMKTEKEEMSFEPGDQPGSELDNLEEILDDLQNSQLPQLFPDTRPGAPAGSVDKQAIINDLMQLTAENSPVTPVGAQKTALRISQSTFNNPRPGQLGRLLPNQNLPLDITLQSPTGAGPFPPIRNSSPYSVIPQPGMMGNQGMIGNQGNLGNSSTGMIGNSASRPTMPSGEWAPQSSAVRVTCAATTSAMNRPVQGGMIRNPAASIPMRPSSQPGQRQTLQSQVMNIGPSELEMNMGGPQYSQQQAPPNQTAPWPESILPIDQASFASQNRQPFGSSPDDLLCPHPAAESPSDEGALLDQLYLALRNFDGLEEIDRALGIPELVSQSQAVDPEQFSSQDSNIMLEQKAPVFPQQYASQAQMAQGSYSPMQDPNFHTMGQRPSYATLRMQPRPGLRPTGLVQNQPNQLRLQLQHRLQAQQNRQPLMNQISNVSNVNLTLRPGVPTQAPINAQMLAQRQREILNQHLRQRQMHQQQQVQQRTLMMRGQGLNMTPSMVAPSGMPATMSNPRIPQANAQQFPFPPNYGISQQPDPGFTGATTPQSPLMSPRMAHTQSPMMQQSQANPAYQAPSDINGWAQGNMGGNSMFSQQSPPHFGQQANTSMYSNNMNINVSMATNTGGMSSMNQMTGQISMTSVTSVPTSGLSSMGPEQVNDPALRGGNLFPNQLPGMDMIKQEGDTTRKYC

Major prion protein = Major prion protein (Homo sapiens, UniProt P04156); format: functional, cell-based
[4] = biological target: Mitogen-activated protein kinase 10 (Homo sapiens, UniProt P53779); assay: Dose response biochemical screening assay for inhibitors of c-Jun N-Terminal Kinase 3 (JNK3). [Related pubchem assays: 746 ]
[5] = biological target: T1, Ubiquitin-conjugating enzyme E2 N (Homo sapiens, UniProt P61088); format: functional
T1 sequence (P61088 whole entry): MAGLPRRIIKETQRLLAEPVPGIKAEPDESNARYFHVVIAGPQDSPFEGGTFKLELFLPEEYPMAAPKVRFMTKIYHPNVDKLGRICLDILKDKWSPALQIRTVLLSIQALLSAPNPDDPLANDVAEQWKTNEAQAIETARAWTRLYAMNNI

Bcl-2-related protein A1 = biological target: T2, Bcl-2-related protein A1 (Mus musculus, UniProt Q07440); format: functional;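 note: confirmatory dose–response counterscreen on Bfl-1, used to check hits from a UBC13 polyubiquitin inhibitor campaign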
T2 sequence (Q07440 whole entry): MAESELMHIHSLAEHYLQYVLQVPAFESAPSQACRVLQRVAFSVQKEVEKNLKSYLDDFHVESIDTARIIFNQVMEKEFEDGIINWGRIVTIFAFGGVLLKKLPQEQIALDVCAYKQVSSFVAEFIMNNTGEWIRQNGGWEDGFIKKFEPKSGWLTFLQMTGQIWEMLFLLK

[6] = biological target: T1, Ubiquitin-conjugating enzyme E2 N; format: functional; remark: listed apart in the source
HEK293 [7] = assay: cells; format: functional, cell-based; conditions: Homo sapiens
[8] = biological target: Heat shock protein HSP 90-alpha (Homo sapiens, UniProt P07900); format: functional, organism-based
HEK293 [9] = assay: cells; format: functional, cell-based; conditions: Homo sapiens; remark: listed apart in the source
HEK293 [10] = assay: inhibition of NOD1-driven NF-kB reporter – cell-based, luminescence, uHTS, primary screen (AID 1578); format: functional; conditions: Homo sapiens
HEK293 [11] = assay: NOD2 signaling inhibitors in MDP-stimulated cells, cell-based, uHTS, luminescence (AID 2001); format: functional; conditions: Homo sapiens
[12] = biological target: T3, Heat shock factor protein 1 (Mus musculus, UniProt P38532); assay: enhancement of HSF1-driven luciferase signal – cell-based, NIH3T3, luminescence, dose retest, confirmation (AID 435004); format: functional;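 note: stress induced by proteasome inhibitor MG132 added 30 min after compound; luciferase reporter driven by HSF1 response element in NIH3T3 cells; actives raise luminescence as potentiators of the MG132 stress response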
T3 sequence (P38532 whole entry): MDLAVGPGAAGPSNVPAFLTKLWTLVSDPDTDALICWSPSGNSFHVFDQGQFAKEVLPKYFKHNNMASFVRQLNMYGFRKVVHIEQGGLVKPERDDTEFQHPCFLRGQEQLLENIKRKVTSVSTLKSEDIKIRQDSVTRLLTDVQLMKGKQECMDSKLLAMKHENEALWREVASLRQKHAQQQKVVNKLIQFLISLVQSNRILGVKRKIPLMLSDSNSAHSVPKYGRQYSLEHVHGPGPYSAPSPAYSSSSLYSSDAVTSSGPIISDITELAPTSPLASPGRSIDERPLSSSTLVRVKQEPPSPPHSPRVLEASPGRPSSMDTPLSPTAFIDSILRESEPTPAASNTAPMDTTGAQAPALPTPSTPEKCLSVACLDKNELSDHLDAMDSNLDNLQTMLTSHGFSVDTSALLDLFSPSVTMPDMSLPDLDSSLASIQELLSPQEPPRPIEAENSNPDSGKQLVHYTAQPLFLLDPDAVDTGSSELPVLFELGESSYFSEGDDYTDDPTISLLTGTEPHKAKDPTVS

[13] = biological target: DNA dC->dU-editing enzyme APOBEC-3G (Homo sapiens, UniProt Q9HC16); assay: Dose Response confirmation of small molecule APOBEC3G DNA Deaminase Inhibitors via a fluorescence-based single-stranded DNA deaminase assay. [Related pubchem assays (depositor defined):AID493012, AID493028]; format: functional
Chain of DNA dC->dU-editing enzyme APOBEC-3G (Q9HC16 whole entry): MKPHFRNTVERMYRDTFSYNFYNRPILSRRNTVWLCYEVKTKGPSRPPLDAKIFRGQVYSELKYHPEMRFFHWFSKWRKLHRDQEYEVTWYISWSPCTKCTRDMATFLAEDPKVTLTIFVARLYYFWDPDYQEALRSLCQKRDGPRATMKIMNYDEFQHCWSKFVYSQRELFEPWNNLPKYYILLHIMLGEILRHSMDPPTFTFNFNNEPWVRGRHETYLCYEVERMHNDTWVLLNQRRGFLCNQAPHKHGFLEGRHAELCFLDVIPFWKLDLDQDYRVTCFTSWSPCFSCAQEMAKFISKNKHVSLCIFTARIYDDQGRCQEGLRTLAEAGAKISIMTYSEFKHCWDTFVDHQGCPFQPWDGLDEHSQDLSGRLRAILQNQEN

[14] = reduction of Shn3 3'UTR-driven luciferase in osteoblasts – cell-based, Clone20 osteoblasts, firefly luciferase, cherry-picked, dose response (AID 624132); format: functional;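 note: firefly luciferase luminescence from reporter carrying the Shn3 3'UTR in osteoblasts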
[15] = biological target: DNA dC->dU-editing enzyme APOBEC-3A (Homo sapiens, UniProt P31941); assay: A3A deaminase inhibition for selectivity – biochemical, dose response (AID 504722); format: functional
Chain of DNA dC->dU-editing enzyme APOBEC-3A (P31941 whole entry): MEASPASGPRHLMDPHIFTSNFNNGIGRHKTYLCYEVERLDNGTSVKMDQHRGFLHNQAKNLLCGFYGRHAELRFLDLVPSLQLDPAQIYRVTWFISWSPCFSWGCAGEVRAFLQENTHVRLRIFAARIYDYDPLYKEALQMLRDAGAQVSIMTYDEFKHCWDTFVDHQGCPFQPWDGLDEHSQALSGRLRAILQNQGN

[16] = biological target: T4, Mannose-6-phosphate isomerase (Homo sapiens, UniProt P34949); assay: MPI inhibition at elevated mannose 6-phosphate – biochemical, fluorescence intensity, high mannose 6-phosphate, primary screen (AID 1220)
T4 sequence (P34949 whole entry): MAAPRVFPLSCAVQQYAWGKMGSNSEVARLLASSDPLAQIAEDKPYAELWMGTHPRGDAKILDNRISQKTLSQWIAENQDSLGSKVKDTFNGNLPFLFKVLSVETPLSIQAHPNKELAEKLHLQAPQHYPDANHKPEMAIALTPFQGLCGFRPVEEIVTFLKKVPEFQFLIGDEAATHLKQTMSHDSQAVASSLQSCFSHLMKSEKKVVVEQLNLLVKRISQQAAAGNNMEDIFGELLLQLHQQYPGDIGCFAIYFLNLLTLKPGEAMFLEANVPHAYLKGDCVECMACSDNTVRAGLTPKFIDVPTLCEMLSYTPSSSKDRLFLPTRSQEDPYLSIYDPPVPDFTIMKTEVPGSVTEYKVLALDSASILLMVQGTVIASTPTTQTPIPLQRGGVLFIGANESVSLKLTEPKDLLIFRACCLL

[17] = biological target: Glucose-6-phosphate 1-dehydrogenase (Homo sapiens, UniProt P11413); assay: inhibition of Homo sapiens G6PD, dose series – biochemical, fluorescence, selectivity assay for P. falciparum G6PD inhibitor project, dose response (AID 504792); format: functional
Chain of Glucose-6-phosphate 1-dehydrogenase (P11413 whole entry): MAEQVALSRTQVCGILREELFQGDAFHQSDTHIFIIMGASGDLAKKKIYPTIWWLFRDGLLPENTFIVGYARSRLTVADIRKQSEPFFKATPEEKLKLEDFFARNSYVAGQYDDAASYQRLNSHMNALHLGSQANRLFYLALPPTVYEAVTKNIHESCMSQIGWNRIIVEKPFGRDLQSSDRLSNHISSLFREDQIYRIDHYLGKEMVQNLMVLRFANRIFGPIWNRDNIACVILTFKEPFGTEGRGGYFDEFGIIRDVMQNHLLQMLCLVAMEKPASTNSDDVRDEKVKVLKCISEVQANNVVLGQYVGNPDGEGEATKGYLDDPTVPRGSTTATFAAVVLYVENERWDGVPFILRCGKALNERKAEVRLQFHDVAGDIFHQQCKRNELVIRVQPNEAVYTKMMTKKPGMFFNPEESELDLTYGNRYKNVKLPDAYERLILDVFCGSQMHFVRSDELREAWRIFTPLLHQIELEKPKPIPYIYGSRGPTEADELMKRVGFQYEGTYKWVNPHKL

[18] = biological target: Induced myeloid leukemia cell differentiation protein Mcl-1 (Homo sapiens, UniProt Q07820); format: functional
[19] = non-specific 3'UTR reporter inhibition in Clone20-Shn3RL – cell-based, Renilla luciferase, cherry-picked, counter-screen for Shn3 inhibitor project, dose response (AID 624133); format: functional
[20] = biological target: DNA damage-inducible transcript 3 protein (Mus musculus, UniProt P35639); format: functional, Cricetulus griseus
[21] = loss of viability in HepG2 cells – cell-based, CellTiter-Glo, cherry-picked, cytotoxicity control for Shn3 inhibitor project, dose response (AID 624134); format: functional
Hexokinase HKDC1 = biological target: T5, Hexokinase HKDC1 (Homo sapiens, UniProt Q2TB90); assay: inhibition of HKDC1 glucose phosphorylation – biochemical, W721R variant, dose response (AID 504729); format: functional
T5 sequence (Q2TB90 whole entry): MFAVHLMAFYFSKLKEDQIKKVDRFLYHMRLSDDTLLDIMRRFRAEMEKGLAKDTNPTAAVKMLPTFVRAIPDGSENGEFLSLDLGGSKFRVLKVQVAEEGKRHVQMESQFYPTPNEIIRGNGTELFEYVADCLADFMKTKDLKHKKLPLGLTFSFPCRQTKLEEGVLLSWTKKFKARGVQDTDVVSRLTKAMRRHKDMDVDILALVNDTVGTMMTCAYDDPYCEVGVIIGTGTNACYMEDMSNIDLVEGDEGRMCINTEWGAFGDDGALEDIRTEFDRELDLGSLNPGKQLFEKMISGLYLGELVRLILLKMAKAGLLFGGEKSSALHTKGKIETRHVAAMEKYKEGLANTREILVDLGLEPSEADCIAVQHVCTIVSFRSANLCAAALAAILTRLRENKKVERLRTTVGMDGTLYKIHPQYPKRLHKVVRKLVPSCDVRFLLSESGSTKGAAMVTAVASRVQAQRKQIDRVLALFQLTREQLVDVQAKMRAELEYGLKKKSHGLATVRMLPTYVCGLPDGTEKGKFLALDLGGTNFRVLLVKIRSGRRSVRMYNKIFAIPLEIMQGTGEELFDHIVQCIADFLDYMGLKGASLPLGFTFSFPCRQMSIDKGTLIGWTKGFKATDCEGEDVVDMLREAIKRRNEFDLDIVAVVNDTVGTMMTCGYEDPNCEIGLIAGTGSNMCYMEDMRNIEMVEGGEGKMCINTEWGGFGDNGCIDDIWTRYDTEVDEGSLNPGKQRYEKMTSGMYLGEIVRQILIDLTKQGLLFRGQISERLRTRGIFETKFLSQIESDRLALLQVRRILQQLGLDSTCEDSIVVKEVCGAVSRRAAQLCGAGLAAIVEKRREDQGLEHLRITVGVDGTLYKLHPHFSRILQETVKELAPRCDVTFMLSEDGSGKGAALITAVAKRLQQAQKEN

Caspase-6 = biological target: T6, Caspase-6 (Homo sapiens, UniProt P55212); assay: inhibition of CASP6 peptide cleavage – biochemical, VEID-R110 fluorescence, cherry-pick, dose response (AID 720632)
T6 sequence (P55212 whole entry): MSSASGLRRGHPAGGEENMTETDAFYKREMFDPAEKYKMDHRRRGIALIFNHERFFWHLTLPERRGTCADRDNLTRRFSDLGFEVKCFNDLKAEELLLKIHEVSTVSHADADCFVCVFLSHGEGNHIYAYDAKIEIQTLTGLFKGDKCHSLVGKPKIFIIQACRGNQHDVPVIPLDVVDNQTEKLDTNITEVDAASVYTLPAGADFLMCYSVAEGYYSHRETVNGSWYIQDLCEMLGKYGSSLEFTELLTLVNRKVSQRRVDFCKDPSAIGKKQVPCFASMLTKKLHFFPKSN

[22] = reduced cellular PGC1a acetyl-lysine signal – cell-based, cherry-picked samples, dose response (AID 720514); format: functional;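 note: potency may reflect raised or lowered acetylation signal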
Paired box protein Pax-8 = Paired box protein Pax-8 (Homo sapiens, UniProt Q06710); assay: PAX8 transcriptional activity inhibition in RMG-I – RMG-I cells, luciferase, cherry-pick, dose response (AID 687027); format: functional, cell-based;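 note: luciferase reporter driven by Pax8 target thyroperoxidase promoter measured by SteadyGlo luminescence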
[23] = biological target: T7, DNA repair protein RAD52 homolog (Homo sapiens, UniProt P43351); format: functional, biochemical
T7 sequence (P43351 whole entry): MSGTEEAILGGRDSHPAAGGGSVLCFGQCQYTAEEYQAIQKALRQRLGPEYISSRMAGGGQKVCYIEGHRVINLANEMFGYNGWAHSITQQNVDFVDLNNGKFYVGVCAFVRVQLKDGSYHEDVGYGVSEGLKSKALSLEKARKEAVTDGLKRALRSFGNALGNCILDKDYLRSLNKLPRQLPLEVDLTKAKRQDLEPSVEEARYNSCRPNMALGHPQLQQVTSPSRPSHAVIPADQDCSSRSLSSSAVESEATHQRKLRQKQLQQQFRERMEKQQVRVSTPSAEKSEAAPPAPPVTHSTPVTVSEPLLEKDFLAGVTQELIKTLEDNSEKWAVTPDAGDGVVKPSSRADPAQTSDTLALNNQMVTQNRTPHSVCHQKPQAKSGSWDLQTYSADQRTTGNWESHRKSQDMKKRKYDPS

[24] = viability of uninfected HEp-2 cells – cell-based, HTS, cytotoxicity control for RSV inhibitor project, dose response (AID 2410); format: functional; conditions: human respiratory syncytial virus
[25] = viability of PTEN-deleted HCT116 cells – cell-based, HCT116 PTEN knockout, dose response (AID 1047); format: functional;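 note: HCT116 colon tumor cells with PTEN knocked out; cells exposed to compound for 60 hours before readout; potency for loss of cell viability measured by luminescence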
[26] = viability of HCT116 lacking mutant beta-catenin – cell-based, human colon tumor, dose response (AID 1045); format: functional;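 note: HCT116 colon tumor cells with beta catenin knocked out; cells exposed to compound for 60 hours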

COc1ccc(Cl)cc1-c1nnc(S)o1
IC50 (cells): > 138 µM (inactive) | EC50 [1]: 3.67 µM (active) | EC50 [2]: > 79.4 µM (not active) | EC50 [3]: 3.4 µM (active) | IC50 (Major prion protein): 2.08 µM (active) | IC50 [4]: 16.2 µM (not active)

C[C@@H]1O[C@@H](O[C@H]2[C@H](Oc3cc(O)c4c(c3)O[C@H](c3ccc(O)cc3)CC4=O)O[C@H](CO)[C@@H](O)[C@@H]2O)[C@H](O)[C@H](O)[C@H]1O [NARINGIN]
IC50 [5]: 12.2 µM (active) and 8.7 µM (active) | IC50 (Bcl-2-related protein A1): > 20 µM (inactive) | IC50 [6]: 5.77 µM (active) and 6.66 µM (active)

CCN(CC)S(=O)(=O)c1cccc(NC(=O)c2ccc(Br)cc2)c1
IC50 (HEK293 [7]): 10.1 µM (active) | AC50 [8]: 3.55 µM (active) | IC50 (HEK293 [9]): 14.1 µM (active) | EC50 (HEK293 [10]): 11.6 µM (active) | IC50 (HEK293 [11]): 7.75 µM (active)

Cn1c(=O)cc(SCC(=O)N2CCOCC2)c2ccc(Cl)cc21
EC50 [1]: > 79.4 µM (inactive) | EC50 [2]: > 79.4 µM (not active) | EC50 [12]: > 260 µM (inactive) | EC50 [3]: > 79.4 µM (not active)

O=S(=O)(Nc1cc(Sc2nc[nH]n2)c(O)c2ccccc12)c1ccccc1
IC50 [13]: 3.16 µM (active) | AC50 [14]: 7.55 µM (active) | IC50 [15]: > 100 µM (inactive) | IC50 [16]: 3.32 µM (active) | IC50 [17]: 21.1 µM (inactive) | IC50 [18]: 11.7 µM (active) | AC50 [19]: 12.4 µM (active) | Absolute IC50 (CHOP) [20]: 10 µM | AC50 [21]: 26.1 µM (active) | IC50 (Hexokinase HKDC1): 9.93 µM (active) | AC50 (Caspase-6): 0.911 µM (active) | AC50 [22]: 9.88 µM (active) | AC50 (Paired box protein Pax-8): 9.52 µM (active)

Cc1ccc(C)c(OCC(O)CN2CCN(CCN3C(=O)c4cccc5cccc(c45)C3=O)CC2)c1 (stereo not drawn)
IC50 [5]: 7.55 µM (active) | AC50 [23]: 7.35 µM (active) | CC50 [24]: 15.8 µM (active) | IC50 (Bcl-2-related protein A1): > 20 µM (inactive) | EC50 [25]: 6.21 µM (active) | EC50 [26]: 3.71 µM (active) | IC50 [6]: 9.34 µM (active)
